The record followed here is patent US6359144B1, “Combinatorial libraries of bicyclic guanidine derivatives and compounds therein” (Lion Bioscience AG, priority 1997, dated 2002).

Where “and” joins values, the source holds several entries; their conditions need not be identical. Identical values can stand only once.

In the assay the target is T1, calmodulin (Homo sapiens, UniProt P0DP23).
T1 construct: purchased Boehringer Mannheim (calmodulin); Sigma (PDE, 5'-nucleotidase)
The assay can be described thus: Calmodulin-dependent phosphodiesterase (CaMPDE) assay. Type of assay: biochemical. The following applies: 53 individual compounds, Table 17. As for the experimental part: An example of an assay that identifies CaM antagonists is a CaMPDE assay, such as the one whose results are shown in Examples IX to XII, below. Samples are mixed with 50 μl of assay buffer (360 mM Tris, 360 mM Imidazole, 45 mM Mg(CH3COO)2, pH 7.5) and 10 μl of CaCl2 (4.5 mM) to a final volume of 251 μl. 25 μl of calmodulin stock solution (Boehringer Mannheim; 0.01 μg/μl) is then added and the samples then sit at room temperature for 10 minutes. 14 μl of PDE (Sigma; 2 Units dissolved in 4 ml of water; stock concentration: 0.0005 Units/μl) is then added, followed by 50 μl of 5′-nucleotidase (Sigma; 100 Units dissolved in 10 ml of 10 mM Tris-HCl containing 0.5 mM Mg(CH3COO)2, pH 7.0; stock concentration: 10 Units/ml). The samples are then incubated for 10 minutes at 30° C. 50 μl of adenosine 3′,5′-cyclic monophosphate (cAMP) (20 mM in water at pH 7.0) is added, the samples incubated for 1 hour at 30° C. and then vortexed. 200 μl of trichloroacetic acid (TCA) (55% in water) is added to a 200 μl sample aliquot, which is then vortexed and centrifuged for 10 minutes. 80 μl of the resulting supernatants of each sample is transferred to a 96-well plate, with 2 wells each containing 80 μl of each sample. 80 μl of ammonium molybdate (1.1% in 1.1N H2SO4) is then added to all the wells, and the OD of each were determined at 730 nm, with the values later subtracted to the final OD reading. 16 μl of reducing agent (6 g sodium bisulfite, 0.6 g sodium sulfite and 125 mg of 1-amino-2-naphtol-4-sulfonic acid in 50 ml of water) is then added to one of each sample duplicate and 16 μl of water is added to the other duplicate. After sitting for 1 hour at room temperature, the OD of each well is determined at 730 nm. […]
As usually defined, the IC50 is the concentration that inhibits the measured activity by half. A lower IC50 goes with greater potency in that assay. In turn, `CC(C)(C)C1CCC(CN2C3=NC[C@@H](CC4CCCCC4)N3C[C@H]2CC2CCCCC2)CC1` (some centres unmarked) showed an IC50 of 4.43 µM.

Regarding `CC(C)(C)C1CCC(CN2C3=NC[C@@H](CC4CCCCC4)N3C[C@H]2C2CCCCC2)CC1` (some centres unmarked), the IC50 was 4.73 µM. For `CC(C)(C)C1CCC(CN2C3=NC[C@@H](CC4CCCCC4)N3C[C@@H]2CC2CCCCC2)CC1` (some centres unmarked) the value was 2.81 µM. `CC(C)(C)C1CCC(CN2C3=NC[C@@H](CC4CCCCC4)N3C[C@@H]2C2CCCCC2)CC1` (some centres unmarked) showed an IC50 of 4.71 µM. This IC50 lies about 1.7-fold higher than the previous one. As for `CC(C)(C)C1CCC(CN2C3=NC[C@@H](C4CCCCC4)N3C[C@H]2C2CCCCC2)CC1` (some centres unmarked), the figure is 15.5 µM; as for `CC(C)(C)C1CCC(CN2C3=NC[C@@H](C4CCCCC4)N3C[C@@H]2C2CCCCC2)CC1` (some centres unmarked), 10.7 µM.

In turn, `CC(C)(C)C1CCC(CN2C3=NC[C@H](CC4CCCCC4)N3C[C@H]2CC2CCCCC2)CC1` (some centres unmarked) had an IC50 of 1.89 µM.

`CC(C)(C)C1CCC(CN2C3=NC[C@H](CC4CCCCC4)N3C[C@H]2C2CCCCC2)CC1` (some centres unmarked) showed an IC50 of 3.98 µM.

`CC(C)(C)C1CCC(CN2C3=NC[C@H](CC4CCCCC4)N3C[C@@H]2CC2CCCCC2)CC1` (some centres unmarked): the IC50 was 2.24 µM. As for `CC(C)(C)C1CCC(CN2C3=NC[C@H](CC4CCCCC4)N3C[C@@H]2C2CCCCC2)CC1` (some centres unmarked), the figure is 10.1 µM; as for `CC(C)(C)C1CCC(CN2C3=NC[C@H](C4CCCCC4)N3C[C@H]2C2CCCCC2)CC1` (some centres unmarked), 13.1 µM; as for `CC(C)(C)C1CCC(CN2C3=NC[C@H](C4CCCCC4)N3C[C@@H]2C2CCCCC2)CC1` (some centres unmarked), 14.6 µM.

Consider `CC(C)(C)C1CCC(CN2C3=NC[C@H](Cc4ccccc4)N3C[C@@H]2Cc2ccccc2)CC1` (some centres unmarked), for which the IC50 is 21.5 µM. As for `CC(C)(C)C1CCC(CN2C3=NCC(C4CCCCC4)N3CC2CC2CCCCC2)CC1` (single isomer, unassigned) [listing 1 of 4 here], the figure is 8.65 µM; as for `CC(C)(C)C1CCC(CN2C3=NCC(C4CCCCC4)N3CC2CC2CCCCC2)CC1` (single isomer, unassigned) [listing 2 of 4 here], 3.19 µM. As for `CC(C)(C)C1CCC(CN2C3=NCC(C4CCCCC4)N3CC2CC2CCCCC2)CC1` (single isomer, unassigned) [listing 3 of 4 here], the figure is 2.4 µM; as for `CC(C)(C)C1CCC(CN2C3=NCC(C4CCCCC4)N3CC2CC2CCCCC2)CC1` (single isomer, unassigned) [listing 4 of 4 here], 5.21 µM; as for `C1CCC(CC2CN3C(=NCC3CC3CCCCC3)N2CCC23CC4CC(CC(C4)C2)C3)CC1` (single isomer, unassigned) [D-cha/D-cha/1-adamantaneacetic acid], 10.2 µM. Compound `C1CCC(CC2CN3C(=NCC3CC3CCCCC3)N2CCC23CC4CC(CC(C4)C2)C3)CC1` (single isomer, unassigned) [D-cha/L-Cha/1-adamantaneacetic acid] showed a half-maximal inhibitory concentration (IC50) of 3.97 µM. For `C1CCC(CC2CN3C(=NCC3C3CCCCC3)N2CCC23CC4CC(CC(C4)C2)C3)CC1` (single isomer, unassigned) [D-chg/D-cha/1-adamantaneacetic acid] the value was 15.1 µM; for `C1CCC(C2CN3C(=NCC3C3CCCCC3)N2CCC23CC4CC(CC(C4)C2)C3)CC1` (single isomer, unassigned) [D-chg/D-chg/1-adamantaneacetic acid], 21.5 µM; for `C1CCC(CC2CN3C(=NCC3C3CCCCC3)N2CCC23CC4CC(CC(C4)C2)C3)CC1` (single isomer, unassigned) [D-chg/L-Cha/1-adamantaneacetic acid], 4.74 µM and 6.46 µM. For `C1CCC(C2CN3C(=NCC3C3CCCCC3)N2CCC23CC4CC(CC(C4)C2)C3)CC1` (single isomer, unassigned) [D-chg/L-Chg/1-adamantaneacetic acid] the value was 12.9 µM; for `C1CCC(CC2CN3C(=NCC3CC3CCCCC3)N2CCC23CC4CC(CC(C4)C2)C3)CC1` (single isomer, unassigned) [L-Cha/D-cha/1-adamantaneacetic acid], 2.25 µM; for `C1CCC(CC2CN3C(=NCC3CC3CCCCC3)N2CCC23CC4CC(CC(C4)C2)C3)CC1` (single isomer, unassigned) [L-Cha/L-Cha/1-adamantaneacetic acid], 7.86 µM.

In turn, `C1CCC(CC2CN3C(=NCC3C3CCCCC3)N2CCC23CC4CC(CC(C4)C2)C3)CC1` (single isomer, unassigned) [L-Chg/D-cha/1-adamantaneacetic acid] had a half-maximal inhibitory concentration (IC50) of 2.83 µM. As for `C1CCC(C2CN3C(=NCC3C3CCCCC3)N2CCC23CC4CC(CC(C4)C2)C3)CC1` (single isomer, unassigned) [L-Chg/D-chg/1-adamantaneacetic acid], the figure is 4.61 µM; as for `C1CCC(CC2CN3C(=NCC3C3CCCCC3)N2CCC23CC4CC(CC(C4)C2)C3)CC1` (single isomer, unassigned) [L-Chg/L-Cha/1-adamantaneacetic acid], 13.4 µM and 25.8 µM. For `C1CCC(C2CN3C(=NCC3C3CCCCC3)N2CCC23CC4CC(CC(C4)C2)C3)CC1` (single isomer, unassigned) [L-Chg/L-Chg/1-adamantaneacetic acid] the value was 19.8 µM; for `CCN1C2=NC[C@@H](C)N2C[C@@H]1Cc1ccccc1` [D-ala/L-Phe/acetic acid], 40.1 µM; for `C1CCC(C[C@@H]2CN=C3N2C[C@@H](C2CCCCC2)N3CCC23CC4CC(CC(C4)C2)C3)CC1` [D-cha/D-chg/1-adamantaneacetic acid], 17.4 µM. As for `C1CCC(C[C@@H]2CN=C3N2C[C@H](C2CCCCC2)N3CCC23CC4CC(CC(C4)C2)C3)CC1` [D-cha/L-Chg/1-adamantaneacetic acid], half-maximal inhibition (IC50) required 10.1 µM. This IC50 lies about 1.7-fold lower than the previous one. As for `C1CCC(CCCN2C3=NC[C@@H](C4CCCCC4)N3C[C@@H]2CC2CCCCC2)CC1` [D-chg/L-Cha/cyclohexylpropionic acid], the figure is 15.7 µM. For `C1CCC(C[C@H]2CN=C3N2C[C@@H](C2CCCCC2)N3CCC23CC4CC(CC(C4)C2)C3)CC1` [L-Cha/D-chg/1-adamantaneacetic acid] the value was 6.11 µM. As for `C1CCC(C[C@H]2CN=C3N2C[C@H](C2CCCCC2)N3CCC23CC4CC(CC(C4)C2)C3)CC1` [L-Cha/L-Chg/1-adamantaneacetic acid], the figure is 16.2 µM. `CC(C)C[C@@H]1CN2C(=NC[C@@H]2C2CCCCC2)N1CCC12CC3CC(CC(C3)C1)C2` [L-Chg/D-leu/1-adamantaneacetic acid] showed an IC50 of 16.9 µM. This IC50 and that of the compound before are within 1.5-fold of each other. As for `CC(C)C[C@@H]1CN2C(=NC[C@@H]2C2CCCCC2)N1CCCC1CCCCC1` [L-Chg/D-leu/cyclohexylpropionic acid], the figure is 25.2 µM; as for `CCN1C2=NC[C@H](Cc3ccccc3)N2C[C@H]1Cc1c[nH]c2ccccc12` [L-Phe/D-trp/acetic acid], 19.5 µM. For `c1ccc(C[C@H]2CN=C3N(CCC45CC6CC(CC(C6)C4)C5)[C@@H](Cc4ccccc4)CN32)cc1` [L-Phe/L-Phe/1-adamantaneacetic acid] the value was 16.7 µM; for `O=[N+]([O-])c1ccc(CCN2C3=NC[C@H](Cc4ccccc4)N3C[C@@H]2Cc2ccccc2)c([N+](=O)[O-])c1` [L-Phe/L-Phe/2,4-dinitrophenylacetic acid], 12.5 µM; for `c1ccc(CC2CN3C(=NCC3Cc3ccccc3)N2CCc2ccc(-c3ccccc3)cc2)cc1` [L-Phe/L-Phe/4-biphenylacetic acid], 14.1 µM. `c1ccc(CC2CN3C(=NCC3Cc3ccccc3)N2CCCCC2CCCCC2)cc1` [L-Phe/L-Phe/cyclohexylbutyric acid] gave an IC50 of 6.98 µM. On to `c1ccc(CC2CN3C(=NCC3Cc3ccccc3)N2CCCC2CCCCC2)cc1` [L-Phe/L-Phe/cyclohexylpropionic acid], for which the half-inhibitory concentration (IC50) was 21.5 µM. For `CCN1C2=NC[C@H](Cc3ccccc3)N2C[C@@H]1Cc1c[nH]c2ccccc12` [L-Phe/L-Trp/acetic acid] the value was 24.8 µM.
